Measured values: US20100120858A1, “Piperidine Derivatives” (Pfizer Inc., priority 2006, published 2010)
Counter-ions that a name gives are not always drawn.

Experiments:
[1] = molecular target: human norepinephrine transporter (Homo sapiens, UniProt P23975); experiment: Human norepinephrine (hNET) receptor binding, [125I]-RTI-55; details: membranes of HEK-293 cells transfected with human norepinephrine transporter cDNA; 50 pM [125I]-RTI-55; IC50 converted by Cheng-Prusoff
How it was run: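 Membranes from HEK-293 cells expressing human NET, incubated 90 min at room temperature with 50 pM [125I]-RTI-55 and compound (10^−5 to 10^−12 M) in Krebs-HEPES pH 7.4. Nonspecific binding defined with 10 μM desipramine; filter-bound counts gave IC50, converted to Ki by Cheng-Prusoff.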

[2] = system: capsaicin-induced mechanical allodynia; experiment: Capsaicin-induced mechanical allodynia rat model; assay type: in vivo; details: sc, male Sprague-Dawley rats, single subcutaneous 10 mg/kg dose on Day 7, measurement 1 hour post dose, mean of eight animals
Description: On Day 0, male Sprague-Dawley rats (about 150 g each) in the dark cycle were placed in suspended wire-bottom cages and allowed to acclimate for 0.5 hour in a darkened, quiet room. The Day 0 paw withdrawal threshold (PWT) was determined on the left hind paw by Von Frey hair assessment using the Dixon up and down method. After assessment, the plantar muscle of the right hind paw was injected with 100 μL of capsaicin (0.25% weight/volume (w/v) in 10% ethanol, 10% Tween 80, in sterile saline).
On Day 6, the PWT of the left hind paw (contralateral from the injected paw) was determined for each animal. Animals on Day 6 with PWT≦11.7 g were considered allodynic responders and were regrouped so that the animals in each cage had similar mean PWT values.
On Day 7, the responders were dosed subcutaneously with 10 mg of the test compound per kg of rat body weight in vehicle, or were administered vehicle (10 mL/kg) alone. The vehicle was phosphate buffered saline containing 2% CREMOPHOR® EL (BASF). The contralateral (i.e., left hind paw) PWT values were determined at 1 hour after the single dose, with the investigator blinded to the dosing scheme. For each animal, the Day 6 PWT value was subtracted from the Day 7, 1 hour PWT value for the 10 mg/kg doses of test compound to give a delta PWT value (Delta PWT (drug)), which represents the change in PWT due to the 1 hour drug treatment. In the case of vehicle-alone treated animals, the Day 6 PWT value was subtracted from the Day 7, 1 hour PWT for the 10 mL/kg doses of vehicle and the values averaged (mean Delta PWT (vehicle)). In addition, the Day 6 PWT was subtracted from the Day 0 PWT to give the baseline level (Baseline) of allodynia present in each animal. Percent inhibition of allodynia of each animal, normalized for vehicle controls, was determined using the following formula: […]

[3] = molecular target: human serotonin transporter (Homo sapiens, UniProt P31645); experiment: Human serotonin (hSERT) receptor binding, [125I]-RTI-55; details: membranes of HEK-293 cells transfected with human serotonin transporter cDNA, IC50 converted by Cheng-Prusoff
Sequence of human serotonin transporter (P31645 whole entry): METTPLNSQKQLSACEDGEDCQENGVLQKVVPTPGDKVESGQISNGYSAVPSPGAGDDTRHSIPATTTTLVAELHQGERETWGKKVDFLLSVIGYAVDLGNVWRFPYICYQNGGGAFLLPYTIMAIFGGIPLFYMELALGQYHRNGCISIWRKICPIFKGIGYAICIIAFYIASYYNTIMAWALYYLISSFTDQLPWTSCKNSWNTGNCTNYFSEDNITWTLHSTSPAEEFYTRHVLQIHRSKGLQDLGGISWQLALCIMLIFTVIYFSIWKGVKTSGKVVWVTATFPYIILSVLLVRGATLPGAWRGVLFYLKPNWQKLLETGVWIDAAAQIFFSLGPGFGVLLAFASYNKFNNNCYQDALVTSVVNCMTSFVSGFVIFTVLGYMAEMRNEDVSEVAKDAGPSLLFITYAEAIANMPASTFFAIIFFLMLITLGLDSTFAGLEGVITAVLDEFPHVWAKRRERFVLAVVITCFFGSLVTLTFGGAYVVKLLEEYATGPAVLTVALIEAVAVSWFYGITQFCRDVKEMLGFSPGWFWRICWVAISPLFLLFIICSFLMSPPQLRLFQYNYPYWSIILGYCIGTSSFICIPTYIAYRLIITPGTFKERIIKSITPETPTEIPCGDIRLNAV
How it was run: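 Membranes from HEK-293 cells expressing human SERT were incubated 90 min at room temperature in Krebs-HEPES buffer pH 7.4 with […] [125I]-RTI-55 and compound (10^−5 to 10^−12 M), in duplicate. Nonspecific binding defined with 10 μM citalopram; IC50 converted to Ki by Cheng-Prusoff.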

Sequence of human norepinephrine transporter (P23975 whole entry): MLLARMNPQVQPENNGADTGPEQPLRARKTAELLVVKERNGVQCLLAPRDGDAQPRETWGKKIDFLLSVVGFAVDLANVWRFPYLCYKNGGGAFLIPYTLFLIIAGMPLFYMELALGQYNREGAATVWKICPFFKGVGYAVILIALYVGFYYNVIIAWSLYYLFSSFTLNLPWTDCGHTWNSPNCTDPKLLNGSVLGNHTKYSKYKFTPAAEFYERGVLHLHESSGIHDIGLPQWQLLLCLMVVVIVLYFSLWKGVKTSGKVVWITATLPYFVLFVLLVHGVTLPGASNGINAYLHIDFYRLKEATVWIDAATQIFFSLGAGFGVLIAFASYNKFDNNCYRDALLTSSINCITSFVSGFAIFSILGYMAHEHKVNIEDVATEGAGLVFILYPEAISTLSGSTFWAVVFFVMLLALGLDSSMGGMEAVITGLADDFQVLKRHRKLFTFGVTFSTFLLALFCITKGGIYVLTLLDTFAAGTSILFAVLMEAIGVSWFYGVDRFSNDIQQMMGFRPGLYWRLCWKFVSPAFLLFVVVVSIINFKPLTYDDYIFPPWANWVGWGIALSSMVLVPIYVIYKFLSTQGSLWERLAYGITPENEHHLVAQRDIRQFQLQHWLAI

SMILES | Ki [1] | inhibition in vivo at 10 mg/kg [2] | Ki [3]
COc1ccc(Oc2nc(C)ccc2OC[C@H]2CCCNC2)cc1 [Example 6, (S)-2-(4-methoxy-phenoxy)-6-methyl-3-(piperidin-3-ylmethoxy)-pyridine fumaric acid] | 16 nM | 16% | 360 nM
Cc1ccc(OC[C@H]2CCCNC2)c(Oc2c(F)cc(Cl)cc2F)n1 [Example 45, (S)-2-(4-chloro-2,6-difluoro-phenoxy)-6-methyl-3-(piperidin-3-ylmethoxy)-pyridine hydrochloride] | 8.4 nM | 1% | 29 nM
Cc1ccc(OC[C@H]2CCCNC2)c(Oc2ccc(Cl)cc2F)n1 [Example 23, (S)-2-(4-chloro-2-fluoro-phenoxy)-6-methyl-3-(piperidin-3-ylmethoxy)-pyridine fumaric acid] | 5.3 nM | 65% | 28 nM
Cc1ccc(OC[C@H]2CCCNC2)c(Oc2cc(F)c(F)cc2F)n1 [Example 29, (S)-6-methyl-2-(2,4,5-trifluoro-phenoxy)-3-(piperidin-3-ylmethoxy)-pyridine fumaric acid] | 5.3 nM | 11% | 130 nM
Cc1ccc(Oc2nc(C)ccc2OC[C@H]2CCCNC2)c(Cl)c1 [Example 14, (S)-2-(2-chloro-4-methyl-phenoxy)-6-methyl-3-(piperidin-3-ylmethoxy)-pyridine fumaric acid] | 2.8 nM | 48% | 40 nM
Cc1ccc(Oc2nc(C)ccc2OC[C@H]2CCCNC2)cc1 [Example 8, (S)-2-(4-methyl-phenoxy)-6-methyl-3-(piperidin-3-ylmethoxy)-pyridine fumaric acid] | 10.3 nM | 22% | 159 nM
Cc1ccc(OC[C@H]2CCCNC2)c(Oc2c(F)cc(F)cc2F)n1 [Example 44, (S)-6-methyl-2-(2,4,6-trifluoro-phenoxy)-3-(piperidin-3-ylmethoxy)-pyridine hydrochloride] | 4.8 nM | 18% | 82 nM
CCc1ccc(Oc2nc(C)ccc2OC[C@H]2CCCNC2)c(OC)c1 [Example 11, (S)-2-(4-ethyl-2-methoxy-phenoxy)-6-methyl-3-(piperidin-3-ylmethoxy)-pyridine fumaric acid] | 18 nM | 9% | 180 nM
COc1cc(C)ccc1Oc1nc(C)ccc1OC[C@H]1CCCNC1 [Example 4, (S)-2-(2-methoxy-4-methyl-phenoxy)-6-methyl-3-(piperidin-3-ylmethoxy)-pyridine fumaric acid] | 7.4 nM | 43% | 170 nM
COc1cc(Cl)ccc1Oc1nc(C)ccc1OC[C@H]1CCCNC1 [Example 12, (S)-2-(4-chloro-2-methoxy-phenoxy)-6-methyl-3-(piperidin-3-ylmethoxy)-pyridine fumaric acid] | 8.7 nM | 88% | 120 nM
Cc1ccc(OC[C@H]2CCCNC2)c(Oc2ccc(F)cc2F)n1 [Example 25, (S)-2-(2,4-difluoro-phenoxy)-6-methyl-3-(piperidin-3-ylmethoxy)-pyridine fumaric acid] | 3.3 nM | 77% | 72 nM
